Experimental data taken from publication PMC4079055 (The New England journal of medicine, 2014).
Where two headings read alike, the source gives them in different places.

Key:
[1] = Phase 1 study of oral ceritinib: safety, dose-limiting toxic events, MTD; type: in vivo
[2] = clinical; settings: human, in vivo
[3] = test system: ALK-rearranged NSCLC; assay: Phase 1 study: antitumor activity; type: in vivo, human
[4] = test system: ALK; settings: enzymatic assays; cited from earlier work
[5] = test system: MET; settings: cited from earlier work
[6] = test system: ALK-rearranged NSCLC xenograft; settings: crizotinib-sensitive and crizotinib-resistant tumors; cited from earlier work
[7] = cited from earlier work
[8] = at least 400 mg daily, 114 patients with NSCLC

## Cc1cc(Nc2ncc(Cl)c(Nc3ccccc3S(=O)(=O)C(C)C)n2)c(OC(C)C)cc1C1CCNCC1 [Ceritinib]
[1]; all 130 patients
  Treatment-related deaths: No treatment-related deaths occurred
[1]; human, in vivo
  Any event, grade 3 or 4, suspected to be related: 64 (49) number of patients with event (percent)
  Diarrhea, grade 3 or 4, suspected to be related: 9 (7) number of patients with event (percent)
  Dose-limiting toxic events: diarrhea (at a daily dose of ≥600 mg), vomiting (at 750 mg daily), nausea (at 750 mg daily), dehydration (at 600 mg daily), elevated alanine aminotransferase level (at 400 mg daily), and hypophosphatemia (at 400 mg daily)
  Elevated alanine aminotransferase level, grade 3 or 4, suspected to be related: 27 (21) number of patients with event (percent)
  Elevated amylase level, grade 3 or 4, suspected to be related: 3 (2) number of patients with event (percent)
  Elevated aspartate aminotransferase level, grade 3 or 4, suspected to be related: 14 (11) number of patients with event (percent)
  Elevated blood alkaline phosphatase level, grade 3 or 4, suspected to be related: 3 (2) number of patients with event (percent)
  Elevated lipase level, grade 3 or 4, suspected to be related: 9 (7) number of patients with event (percent)
  Fatigue, grade 3 or 4, suspected to be related: 6 (5) number of patients with event (percent)
  Hyperglycemia, grade 3 or 4, suspected to be related: 3 (2) number of patients with event (percent)
  Hypophosphatemia, grade 3 or 4, suspected to be related: 4 (3) number of patients with event (percent)
  Incidence of grade 3 or 4 nausea: 5%
  Median duration of treatment interruption: 7.3 days
  Nausea, grade 3 or 4, suspected to be related: 7 (5) number of patients with event (percent)
  Study drug permanently discontinued owing to an adverse event: 6%
  Vomiting, grade 3 or 4, suspected to be related: 6 (5) number of patients with event (percent)
[1]; in vivo
  Cases of interstitial lung disease possibly related to therapy: four
  Dose-limiting toxic events: diarrhea, vomiting, dehydration, elevated aminotransferase levels, and hypophosphatemia
[1]; oral, once daily, dose-escalation phase, 59 patients
  Maximum tolerated dose (MTD): 750 mg daily
[2]
  Day by which steady-state levels were achieved: ~15 days
  Increase in Cmax in relation to dose: slightly greater than proportional to the dose
[2]; 750 mg
  half-life: ~40 h
[2]; po
  Mean (±SD) area under the plasma concentration–time curve over a 24-hour period: 16,500±4750 ng per milliliter per hour
  Mean Cmax: 800±205 ng per milliliter
[2]; po, 750 mg
  Time at which Cmax was achieved after receipt of the dose: approximately 6 hours
[3]; 750 mg daily, 78 patients with NSCLC, 95% CI 47 to 70
  Overall response rate: 59%
[3]; 19 crizotinib-resistant patients with repeat biopsy
  Tumor regression by molecular status: Tumor regression was observed in all the patients
[3]; 50 patients without central nervous system metastases, ≥400 mg daily
  Median progression-free survival: 7.0 months
[3]; 50 to 300 mg daily, 8 patients with NSCLC
  Patients with confirmed partial response: 2 patients
[3]; 64 patients with central nervous system metastases at baseline, ≥400 mg daily
  Median progression-free survival: 6.9 months
[3]; 66 responders, at least 400 mg daily, 95% CI 6.9 to 11.4
  Median duration of response: 8.2 months
[3]; 66 responders, at least 400 mg daily, 95% CI 50 to 74
  Patients with duration of response of 6 months or longer: 64%
[3]; 80 patients who had previously received crizotinib, 400 to 750 mg daily, 95% CI 5.3 to 8.8
  Median progression-free survival: 6.9 months
[3]; 114 patients with NSCLC, at least 400 mg daily, 95% CI 5.6 to 9.5
  Median progression-free survival: 7.0 months
[3]; [8]
  Confirmed complete response: 1%
  Confirmed partial response: 57%
  Progressive disease on the first restaging scans: 11%
  Stable disease: 22%
[3]; at least 400 mg daily, 114 patients with NSCLC, 95% CI 48 to 67
  Overall response rate: 58%
[3]; data immature, 72% censored
  Median overall survival: had not been reached
[3]; no previous crizotinib, at least 400 mg daily, 34 patients, 95% CI 44 to 78
  Overall response rate: 62%
[3]; of 7 crizotinib-resistant patients with ALK gene amplification or mutation
  Patients with confirmed responses: 6 patients
[3]; of 12 crizotinib-resistant patients without ALK alteration
  Patients with confirmed responses: 7 patients
[3]; one patient with crizotinib-resistant disease, after 6 weeks of treatment
  Reduction in tumor burden on computed tomographic scans: 52%
[3]; patients who had received crizotinib previously
  Responses in untreated central nervous system lesions: responses were seen in untreated lesions in the central nervous system
[3]; previously treated with crizotinib, 400 mg or more daily, 80 patients, 95% CI 45 to 67
  Overall response rate: 56%
[3]; previously treated with crizotinib, 750 mg daily, 50 patients, 95% CI 41 to 70
  Overall response rate: 56%
[4]
  Potency against ALK relative to crizotinib: 20 times
[5]
  Inhibition of the kinase activity of MET: does not inhibit
[6]
  Antitumor activity in xenograft models: marked antitumor activity

## C[C@@H](Oc1cc(-c2cnn(C3CCNCC3)c2)cnc1N)c1c(Cl)ccc(F)c1Cl [crizotinib]
[7]
  Incidence of grade 3 or 4 nausea: 1%
[7]; of 321 patients
  Patients with drug-related diarrhea of grade 3 or 4: 0 patients
